Assays:
Settings in all cases: 48 h
NOMO1 [1] = assay: cell viability relative to DMSO control; higher = less cytotoxic
Procedure, shortened: (§1)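 In 1536-well plates, 5 μl of leukemia cells were seeded per well: 500 cells/well for NOMO1 or SEM and 1000 cells/well for P12-Ichikawa. Each line had first been adapted for at least four passages in each medium. Library compounds in DMSO were pin-dosed at 11 threefold concentrations between 47 μM and 0.79 nM, and CellTiter-Glo One luminescence was read after 48 h at 37°C. Viability is a per-plate percentage relative to DMSO wells, with cell-free wells as background.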

SEM cells [2] = assay: as above
Procedure, shortened: as §1

NOMO1 [3] = assay: AUC of viability dose-response curve (% viability x log10 dose units); higher = less sensitive
Procedure, shortened: (§2)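 Area under the curve was integrated by trapezoidal rule from a log-logistic fit of normalised viability, with curves exceeding full viability scaled and quality-control failures removed. The fit had four parameters over log10 doses. Viability came from CellTiter-Glo One luminescence, normalised per plate to DMSO and cell-free wells, after leukemia cells adapted to each medium (500 or 1000 cells/well, 1536-well plates) were exposed to library compounds in DMSO for 48 h at 37°C. The 11 threefold doses ran from 47 μM to 0.79 nM.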

P12-Ichikawa [4] = assay: as above
Procedure, shortened: as §2

SEM cells [5] = assay: as above
Procedure, shortened: as §2

P12-Ichikawa [6] = assay: cell viability relative to DMSO control; higher = less cytotoxic
Procedure, shortened: as §1

N#Cc1c(N(CC(=O)[O-])CC(=O)[O-])sc(C(=O)[O-])c1CC(=O)[O-].O.O.O.O.O.O.O.[Sr+2].[Sr+2]
cell viability [%]
Settings	HPLM + 10% dialyzed FBS	RPMI 5 mM glucose + 10% FBS	RPMI 5 mM glucose + 10% dialyzed FBS
NOMO1 [1], 0.000781 µM	113	–	–
NOMO1 [1], 0.00234 µM	123	–	–
NOMO1 [1], 0.00702 µM	150	–	–
NOMO1 [1], 0.0211 µM	130	–	–
NOMO1 [1], 0.0632 µM	137	–	–
NOMO1 [1], 0.19 µM	129	–	–
NOMO1 [1], 0.569 µM	148	–	–
NOMO1 [1], 1.71 µM	123	–	–
NOMO1 [1], 5.12 µM	138	–	–
NOMO1 [1], 15.4 µM	124	–	–
NOMO1 [1], 46.1 µM	112	–	–
SEM cells [2], 0.000781 µM	111	117	111
SEM cells [2], 0.00234 µM	113	124	107
SEM cells [2], 0.00702 µM	122	131	123
SEM cells [2], 0.0211 µM	111	138	121
SEM cells [2], 0.0632 µM	117	149	129
SEM cells [2], 0.19 µM	130	146	131
SEM cells [2], 0.569 µM	127	153	134
SEM cells [2], 1.71 µM	132	132	128
SEM cells [2], 5.12 µM	144	143	112
SEM cells [2], 15.4 µM	103	124	89.3
SEM cells [2], 46.1 µM	87.9	102	67.9

AUC of viability dose-response curve
Settings	NOMO1 [3]	P12-Ichikawa [4]	SEM cells [5]
HPLM + 10% dialyzed FBS	467	463	462
RPMI 5 mM glucose + 10% FBS	472	458	467
RPMI 5 mM glucose + 10% dialyzed FBS	472	456	449

CCCCCN(C)CCC(O)(P(=O)([O-])O)P(=O)(O)O
cell viability [%]
Settings	NOMO1 [1]	P12-Ichikawa [6]	SEM cells [2]
HPLM + 10% dialyzed FBS, 0.000781 µM	68.4	88	57.1
HPLM + 10% dialyzed FBS, 0.00234 µM	81.8	88.1	71.9
HPLM + 10% dialyzed FBS, 0.00702 µM	89	87.1	72.8
HPLM + 10% dialyzed FBS, 0.0211 µM	101	96	85.3
HPLM + 10% dialyzed FBS, 0.0632 µM	85.3	95	71.8
HPLM + 10% dialyzed FBS, 0.19 µM	92.9	97.6	91.8
HPLM + 10% dialyzed FBS, 0.569 µM	89.5	99.5	88.3
HPLM + 10% dialyzed FBS, 1.71 µM	92.4	92.9	21.9
HPLM + 10% dialyzed FBS, 5.12 µM	86	93.4	82.8
HPLM + 10% dialyzed FBS, 15.4 µM	80	99.2	104
HPLM + 10% dialyzed FBS, 46.1 µM	94	92.4	75.2
RPMI 5 mM glucose + 10% FBS, 0.000781 µM	81.1	81.4	74.5
RPMI 5 mM glucose + 10% FBS, 0.00234 µM	88.8	86.5	88.1
RPMI 5 mM glucose + 10% FBS, 0.00702 µM	89.5	91.3	84.1
RPMI 5 mM glucose + 10% FBS, 0.0211 µM	96.7	95.6	90.4
RPMI 5 mM glucose + 10% FBS, 0.0632 µM	97.3	85.8	75.5
RPMI 5 mM glucose + 10% FBS, 0.19 µM	99.9	86.6	100
RPMI 5 mM glucose + 10% FBS, 0.569 µM	97.9	94	98.3
RPMI 5 mM glucose + 10% FBS, 1.71 µM	94.4	89.7	16.9
RPMI 5 mM glucose + 10% FBS, 5.12 µM	95	91.3	77.5
RPMI 5 mM glucose + 10% FBS, 15.4 µM	84.8	92.6	107
RPMI 5 mM glucose + 10% FBS, 46.1 µM	81.7	83.4	73.3
RPMI 5 mM glucose + 10% dialyzed FBS, 0.000781 µM	84.6	79	70
RPMI 5 mM glucose + 10% dialyzed FBS, 0.00234 µM	87.3	85.2	85.4
RPMI 5 mM glucose + 10% dialyzed FBS, 0.00702 µM	86.1	81.1	69
RPMI 5 mM glucose + 10% dialyzed FBS, 0.0211 µM	80	95.3	95.7
RPMI 5 mM glucose + 10% dialyzed FBS, 0.0632 µM	93.7	88.9	71.5
RPMI 5 mM glucose + 10% dialyzed FBS, 0.19 µM	101	84.5	87.9
RPMI 5 mM glucose + 10% dialyzed FBS, 0.569 µM	96.5	88.9	83.2
RPMI 5 mM glucose + 10% dialyzed FBS, 1.71 µM	90.8	79.4	17.4
RPMI 5 mM glucose + 10% dialyzed FBS, 5.12 µM	85.2	86.1	86.4
RPMI 5 mM glucose + 10% dialyzed FBS, 15.4 µM	94.1	87.8	102
RPMI 5 mM glucose + 10% dialyzed FBS, 46.1 µM	75	86.9	78.4

AUC of viability dose-response curve
Settings	NOMO1 [3]	P12-Ichikawa [4]	SEM cells [5]
HPLM + 10% dialyzed FBS	421	447	357
RPMI 5 mM glucose + 10% FBS	439	426	384
RPMI 5 mM glucose + 10% dialyzed FBS	423	409	367

CN(CC(=O)N(Cc1ccc(C2CCCCC2)cc1)c1ccc(C(=O)O)c(O)c1)[S+](=O)([O-])c1c(F)c(F)c(F)c(F)c1F
cell viability [%]
Settings	NOMO1 [1]	P12-Ichikawa [6]	SEM cells [2]
HPLM + 10% dialyzed FBS, 0.000781 µM	101	93	83.5
HPLM + 10% dialyzed FBS, 0.00234 µM	109	100	94.7
HPLM + 10% dialyzed FBS, 0.00702 µM	104	94.2	104
HPLM + 10% dialyzed FBS, 0.0211 µM	101	102	95.8
HPLM + 10% dialyzed FBS, 0.0632 µM	117	106	103
HPLM + 10% dialyzed FBS, 0.19 µM	107	107	93.7
HPLM + 10% dialyzed FBS, 0.569 µM	101	107	92.7
HPLM + 10% dialyzed FBS, 1.71 µM	102	101	97.7
HPLM + 10% dialyzed FBS, 5.12 µM	95.1	91.7	84.8
HPLM + 10% dialyzed FBS, 15.4 µM	83.5	75.3	86.5
HPLM + 10% dialyzed FBS, 46.1 µM	31.7	5.29	31.1
RPMI 5 mM glucose + 10% FBS, 0.000781 µM	92.8	93	80.8
RPMI 5 mM glucose + 10% FBS, 0.00234 µM	82.5	100	104
RPMI 5 mM glucose + 10% FBS, 0.00702 µM	88.4	99.5	90
RPMI 5 mM glucose + 10% FBS, 0.0211 µM	84.3	101	93.1
RPMI 5 mM glucose + 10% FBS, 0.0632 µM	88.5	99.7	88.9
RPMI 5 mM glucose + 10% FBS, 0.19 µM	88.6	103	101
RPMI 5 mM glucose + 10% FBS, 0.569 µM	86.9	100	103
RPMI 5 mM glucose + 10% FBS, 1.71 µM	87.7	105	97.8
RPMI 5 mM glucose + 10% FBS, 5.12 µM	83.9	101	77.4
RPMI 5 mM glucose + 10% FBS, 15.4 µM	83.4	92.5	54.8
RPMI 5 mM glucose + 10% FBS, 46.1 µM	63	51.3	6.03
RPMI 5 mM glucose + 10% dialyzed FBS, 0.000781 µM	74.1	87.8	87
RPMI 5 mM glucose + 10% dialyzed FBS, 0.00234 µM	95.2	90.1	91.1
RPMI 5 mM glucose + 10% dialyzed FBS, 0.00702 µM	103	91.4	93.1
RPMI 5 mM glucose + 10% dialyzed FBS, 0.0211 µM	94.1	93.9	89.2
RPMI 5 mM glucose + 10% dialyzed FBS, 0.0632 µM	93.8	96.6	103
RPMI 5 mM glucose + 10% dialyzed FBS, 0.19 µM	110	87.1	101
RPMI 5 mM glucose + 10% dialyzed FBS, 0.569 µM	95.4	94.3	84.5
RPMI 5 mM glucose + 10% dialyzed FBS, 1.71 µM	95.3	96	91.3
RPMI 5 mM glucose + 10% dialyzed FBS, 5.12 µM	95.6	97.9	80.3
RPMI 5 mM glucose + 10% dialyzed FBS, 15.4 µM	86.6	79.6	66.6
RPMI 5 mM glucose + 10% dialyzed FBS, 46.1 µM	51.8	29.6	19.9

AUC of viability dose-response curve
Settings	NOMO1 [3]	P12-Ichikawa [4]	SEM cells [5]
HPLM + 10% dialyzed FBS	447	440	432
RPMI 5 mM glucose + 10% FBS	408	462	404
RPMI 5 mM glucose + 10% dialyzed FBS	440	421	405
